{"source": "patent EP2112155B1", "about": "“Hydrogensulfate salt of 2-acetoxy-5-(a-cyclopropylcarbonyl-2-fluorobenzyl)-4,5,6,7-tetrahydrothieno[3,2-c]pyridine and its preparation” (Sandoz AG, priority 2008, dated 2009)", "test": "Solubility of various Prasugrel acid addition salts, determined according to European Pharmacopoeia 6.0, 5.11 (2008)", "format": "physicochemical", "description": "As bioavailability depends, among others, on solubility, an optimal active substance for oral application should show a high solubility in a broad pH-range. […] Table 2: Solubility of various Prasugrel acid addition salts", "note": "Where a name gives a salt, the structure may show the parent alone.", "data": [{"smiles": "CC(=O)Oc1cc2c(s1)CCN(C(C(=O)C1CC1)c1ccccc1F)C2", "note": "(stereo not drawn) [Prasugrel hydrochloride]", "values": [{"measurement": "Solubility", "setting": "Acetate buffer pH 4.5", "value": "insoluble"}, {"measurement": "Solubility", "setting": "Hydrochloric acid medium pH 1.2", "value": "sparingly soluble"}, {"measurement": "Solubility", "setting": "water", "value": "insoluble"}]}]}
